Experimental data published in article PMC13266999, “Designing Antibiotics with Inherent Resistance to Efflux as a Strategy to Revive Discovery against Multidrug-Resistant Pathogens” (Journal of Medicinal Chemistry, 2026).
Converted amounts (≈) assume the structure as drawn. Where two headings read alike, the source gives them in different places.

How the values were obtained:
[1] = system: S. aureus NCTC 13616; assay: Time-kill assay; assay type: cell-based; details: 4x MIC, 24 hours
Description: Time-kill assays were performed as defined previously.

[2] = system: E. faecalis; assay: MIC (microbroth dilution); assay type: cell-based, Enterococcus faecalis
Description: (§1) All bacteria were maintained on tryptic soy agar (TSA), except Streptococcus spp., which were maintained on Columbia agar plates containing 5% horse blood. […] Bacteria were grown to stationary phase in liquid culture overnight, with shaking at 200 rpm, before being back diluted to the relevant starting concentration for each assay below. MICs were measured by the microbroth dilution method. […] Absorbance at OD600 was read on a CLARIOstar spectrophotometer (BMG Labtech) and the MIC was defined as the minimum concentration of compound where no visible growth was detected. […] MICs were also performed in the presence of the outer membrane permeator, polymyxin b nonapeptide (PMBN) following the same MIC method but with the following variation. The 2-fold dilution series of compound was prepared as above, then 50 μL of PMBN at a final concentration of 30 μg/mL was added to relevant wells, while 50 μL/well of blank media was added to the remaining wells. Bacteria were then added at 50 μL/well for a starting concentration as above. […] The MICs were read and defined as above. All animal procedures were performed by the contract research organization Pharmacology Discovery Services Taiwan in accordance with the Guide for the Care and Use of Laboratory Animals. The procedures were approved by the Institutional Ethics Committee of Pharmacology Discovery Services Taiwan, Ltd. (approval no. AB127662), in compliance with animal welfare legislation in Taiwan.

[3] = system: A. baumannii; assay: A. baumannii efflux chequerboard assay; assay type: cell-based, Acinetobacter baumannii; details: for MIC: Acinetobacter baumannii
Description: Checkerboard assays were performed by preparing two separate 2-fold dilution series of compounds in two 96 well plates, one horizontally, one vertically. […] Plates were incubated at 37 C for 20 h and the absorbance (OD600) was read on a CLARIOstar spectrophotometer (BMG Labtech). The fractional inhibitory concentration was calculated as follows: ΣFIC = [(MIC of A in combination)/(MIC of A alone)] + [(MIC of B in combination)/(MIC of B alone)].

[4] = system: S. haemolyticus; assay: MIC (microbroth dilution); assay type: cell-based, Staphylococcus haemolyticus; details: SH324
Description: (§2) All bacteria were maintained on tryptic soy agar (TSA), except Streptococcus spp., which were maintained on Columbia agar plates containing 5% horse blood. All bacterial assays were carried out in tryptic soy broth (TSB), except for Streptococcus spp. which were grown in cation-adjusted Mueller Hinton broth containing 2.5% lysed horse blood. Bacteria were grown to stationary phase in liquid culture overnight, with shaking at 200 rpm, before being back diluted to the relevant starting concentration for each assay below. MICs were measured by the microbroth dilution method. […] Absorbance at OD600 was read on a CLARIOstar spectrophotometer (BMG Labtech) and the MIC was defined as the minimum concentration of compound where no visible growth was detected. The compounds were prepared as a DMSO stock and equivalent concentrations of DMSO had no effect on bacterial growth. MICs were also performed in the presence of the outer membrane permeator, polymyxin b nonapeptide (PMBN) following the same MIC method but with the following variation. The 2-fold dilution series of compound was prepared as above, then 50 μL of PMBN at a final concentration of 30 μg/mL was added to relevant wells, while 50 μL/well of blank media was added to the remaining wells. Bacteria were then added at 50 μL/well for a starting concentration as above. Thirty μg/mL of PMBN had no effect on bacterial growth. The MICs were read and defined as above. All animal procedures were performed by the contract research organization Pharmacology Discovery Services Taiwan in accordance with the Guide for the Care and Use of Laboratory Animals. The procedures were approved by the Institutional Ethics Committee of Pharmacology Discovery Services Taiwan, Ltd. (approval no. AB127662), in compliance with animal welfare legislation in Taiwan.

[5] = system: E. faecium; assay: MIC (microbroth dilution); assay type: cell-based, Enterococcus faecium
Description: as §2

[6] = system: E. coli; assay: MIC (microbroth dilution); assay type: cell-based; details: Escherichia coli
Description: as §1

[7] = system: Pseudomonas aeruginosa; assay: MIC (microbroth dilution); assay type: cell-based
Description: as §2

[8] = system: Acinetobacter baumannii; assay: MIC (microbroth dilution); assay type: cell-based
Description: as §2

With `O=C(O)c1cn(C2CC2)c2cc(N3CCNCC3)c(F)cc2c1=O` [Ciprofloxacin, ciprofloxacin, reference compound] the time-kill profile [1] was “comparable bacteriostatic profiles”, the MIC ([2]; EF602) was 64 µg/mL (≈ 193 µM) and the MIC ([2]; Enterococcus faecalis, NCTC775, NCTC 775, read-out: MIC) was 1 µg/mL (≈ 3.02 µM). For the same compound, the MIC ([2]; Enterococcus faecalis, NCTC12204, NCTC 12204, read-out: MIC) was 1 µg/mL (≈ 3.02 µM), the MIC ([2]; NCTC 775) was 1 µg/mL (≈ 3.02 µM) and the “MIC +50 (0.25x MIC)” value ([3]; A. baumannii ATCC 17978) was 0.0017 to 0.188 µg/mL. The “MIC +50 (0.5x MIC)” value ([3]; A. baumannii ATCC 17978) was 0.007 to 0.055 µg/mL, the “MIC +50 (0.25x MIC)” value ([3]; A. baumannii AYE) was 3.5 to 15.5 µg/mL and the “MIC +50 (0.5x MIC)” value ([3]; A. baumannii AYE) was 0.188 to 0.9 µg/mL. The MIC ([3]; ATCC17978, read-out: MIC alone) was 0.25 µg/mL, the MIC ([3]; read-out: MIC alone) was 64 µg/mL and the MIC [4] was 16 µg/mL (≈ 48.3 µM). For the same compound, the MIC ([5]; EF205) was 128 µg/mL (≈ 386 µM), the MIC ([5]; NCTC 12204) was 1 µg/mL (≈ 3.02 µM) and the MIC ([6]; 319238/UR) was greater than 128 µg/mL. For the same compound, the MIC ([6]; LEC077) was 0.25 µg/mL (≈ 0.754 µM), the MIC ([6]; LEC081) was 0.25 µg/mL (≈ 0.754 µM) and the MIC ([7]; NCTC 13437) was 64 µg/mL (≈ 193 µM). For the same compound, the MIC ([7]; Pseudomonas aeruginosa, PAO1, PAO1) was 0.25 µg/mL (≈ 0.754 µM), the MIC ([8]; Acinetobacter baumannii, 86, oxa23) was 128 µg/mL (≈ 386 µM) and the MIC ([8]; Acinetobacter baumannii, 96, oxa23) was 128 µg/mL (≈ 386 µM). It also gave an MIC ([8]; Acinetobacter baumannii, A318) of 32 µg/mL (≈ 96.6 µM), an MIC ([8]; Acinetobacter baumannii, A319) of 32 µg/mL (≈ 96.6 µM) and an MIC ([8]; Acinetobacter baumannii, A600 colR) of 32 µg/mL (≈ 96.6 µM). For the same compound, the MIC ([8]; Acinetobacter baumannii, AB01335 adeG183::T26) was 4 µg/mL (≈ 12.1 µM), the MIC ([8]; Acinetobacter baumannii, AB05215 adeS132::T26) was 2 µg/mL (≈ 6.04 µM) and the MIC ([8]; Acinetobacter baumannii, AB05218 adeS141::T26) was 4 µg/mL (≈ 12.1 µM). It also gave an MIC ([8]; Acinetobacter baumannii, AB05219 adeR103::T26) of 4 µg/mL (≈ 12.1 µM), an MIC ([8]; Acinetobacter baumannii, AB05222 adeR160::T101) of 2 µg/mL (≈ 6.04 µM) and an MIC ([8]; Acinetobacter baumannii, AB05226 adeA165::T26) of 4 µg/mL (≈ 12.1 µM). The MIC ([8]; Acinetobacter baumannii, AB05227 adeA138::T26) was 2 µg/mL (≈ 6.04 µM), the MIC ([8]; Acinetobacter baumannii, AB05228 adeB150::T26) was 2 µg/mL (≈ 6.04 µM) and the MIC ([8]; Acinetobacter baumannii, AB05230 adeB181::T26) was 2 µg/mL (≈ 6.04 µM). It also gave an MIC ([8]; Acinetobacter baumannii, BAA1709, BAA-1709, read-out: MIC) of 0.25 µg/mL (≈ 0.754 µM), an MIC ([8]; Acinetobacter baumannii, BAA1710, BAA-1710 (AYE), read-out: MIC) of 64 µg/mL (≈ 193 µM) and an MIC ([8]; Acinetobacter baumannii, BAA2093, BAA-2093, read-out: MIC) of no more than 0.125 µg/mL. For the same compound, the MIC ([8]; Acinetobacter baumannii, NCTC10303, NCTC 10303, read-out: MIC) was 0.5 µg/mL (≈ 1.51 µM), the MIC ([8]; Acinetobacter baumannii, NCTC12156, NCTC 12156, read-out: MIC) was 1 µg/mL (≈ 3.02 µM) and the MIC ([8]; Acinetobacter baumannii, NCTC13302, NCTC 13302, oxa24, read-out: MIC) was 32 µg/mL (≈ 96.6 µM). For the same compound, the MIC ([8]; Acinetobacter baumannii, NCTC13424, NCTC 13424, oxa23) was greater than 128 µg/mL, the MIC ([8]; Acinetobacter baumannii, UKA1, oxa23, read-out: MIC) was 8 µg/mL (≈ 24.1 µM) and the MIC ([8]; Acinetobacter baumannii, UKA2, Low resistance, read-out: MIC) was 64 µg/mL (≈ 193 µM). It also gave an MIC ([8]; Acinetobacter baumannii, UKA9, read-out: MIC) of 0.25 µg/mL (≈ 0.754 µM), an MIC ([8]; Acinetobacter baumannii, UKA12, oxa23) greater than 128 µg/mL and an MIC ([8]; Acinetobacter baumannii, UKA13, oxa23) greater than 128 µg/mL. It also gave an MIC ([8]; Acinetobacter baumannii, UKA15, oxa23, read-out: MIC) of 16 µg/mL (≈ 48.3 µM), an MIC ([8]; Acinetobacter baumannii, UKA19, read-out: MIC) of 8 µg/mL (≈ 24.1 µM) and an MIC ([8]; Acinetobacter baumannii, W1, read-out: MIC) of 128 µg/mL (≈ 386 µM). The MIC50 ([8]; Acinetobacter baumannii, panel of 25 A. baumannii strains) was 32 µg/mL (≈ 96.6 µM) and the MIC ([8]; BAA-1710 (AYE), listed as 1) was greater than 128 µg/mL.
